# From PMC7381729, “A new class of PentixaFor- and PentixaTher-based theranostic agents with enhanced CXCR4-targeting efficiency” (Theranostics, 2020)
# Like-named read-outs stand apart in the source and are kept apart here. Where a SMILES comes first, the peptide text is derived from it. Side-chain parts run from the residue outwards. [ ]: non-standard residue; d: D form. The star is where a group is joined. DOTA = O=C(O)CN1CCN(CC(=O)O)CCN(CC(=O)*)CCN(CC(=O)O)CC1; dTyr(3-I) = N[C@H](Cc1ccc(O)c(I)c1)C(=O)O; 2Nal = N[C@@H](Cc1ccc2ccccc2c1)C(=O)O; dNMeOrn = CN[C@H](CCCN)C(=O)O; 4Amb = NCc1ccc(C(=O)O)cc1; 4Abz = Nc1ccc(C(=O)O)cc1
# Tests used:
# [1] = In vivo metabolite analysis (radio-HPLC); set-up: species or system mouse; settings: CB17 SCID mice, 0.5h p.i., i.v. app. 35 MBq; radio-HPLC of extracts
# Method: 68Ga-labeling was performed as published previously using a 68Ge/68Ga generator (iTHEMBA Labs, South Africa) and a GallElut + synthesis module (SCINTOMICS GmbH, Germany). Usually, 5 nmol of precursor peptide were used, yielding the 68Ga-labeled peptides in specific activities of 100 to 120 […]
# For 177Lu-labeling, the peptides were dissolved in water to yield a 1 mM solution. Of this solution, the required volume was added to 177LuCl3 in 0.04 M HCl (ITG/ITM, Garching, Germany; activity concentration: 370 MBq/500 µl) to achieve a peptide-to -177Lu-activity ratio of 1 nmol peptide per 225 MBq 177LuCl3. To this mixture, 1 M NH4OAc was added (calculated to be 10% of total reaction volume), and the mixture was heated to 90°C for 4 0 min. […]
# Human glioma U87 cells overexpressing CD4 and CXCR4 (U87CD4CXCR4) cells were kept in cultivation at least one week before starting the experiment. […] Perkin-Elmer’s LANCE cAMP assay kit (catalog #AD0262) based on time-resolved fluorescence resonance energy transfer (TR -FRET) was utilized to determine the ability of [natLu]DOTA -r -a -ABA -iodo CPCR4 and [ natLu]PentixaTher vs the reference CXCL12 to inhibit cAMP production induced by 5 µM Forskolin. […]
# (15,000 g), and the supernatants were subjected to ultrafiltration. […] The blood extract was also analyzed by radio-HPLC. For all extracts the ex traction efficiency was determined in a ɣ -counter.
# [2] = Lipophilicity, modified shake-flask method; assay type: physicochemical; settings: O/PBS, radiolabeled compound, means ± SD (n=6)
# Method: The lipophilicity (log PO/PBS) of the ^68Ga- and ^177Lu-labeled compounds in this study was determined via a modified shake-flask method.
# [3] = test system: Daudi (human B-cell lymphoma) xenograft bearing CB-17 SCID mice; experiment: Biodistribution in Daudi xenograft bearing mice; assay type: in vivo, mouse; settings: for Initial activity retained in the Daudi xenografts after 48h: 48h p.i. relative to early time point
# Method: (§1) The biodistribution of selected compounds was investigated in Daudi (human B-cell lymphoma) xenograft bearing female CB-17 SCID mice (6-8 weeks, Charles River, Sulzfeld, Germany), [29]. All animal experiments were performed in accordance with current animal welfare regulations in Germany (approval #55.2-1-54-2532-71-13).
# (§2) Animals (n=4-5 per group) were injected intravenously with 5-10 MBq (0.08-0.11 nmol peptide per mouse) of the respective ^68Ga- and^ 177Lu-labeled CXCR4 ligands in PBS (100 µL) into the tail vein under isoflurane anesthesia. CXCR4-specificity of binding was determined by coinjection of 50 µg AMD3100 per mouse. The animals were sacrificed 1, 6 and 48h post injection (p.i.), and the organs of interest were dissected. The radioactivity was measured in weighted tissue samples using a γ-counter. Data are expressed in % ID/g tissue (mean ± SD).
# [4] = Biodistribution in Daudi xenograft bearing mice; assay type: in vivo, mouse; settings: female, CB-17 SCID, mouse, iv, total radioactivity, 48h p.i., means ± SD, n=4-5 animals
# Method: as §1, §2
# [5] = 1h p.i., tracer only, i.v., γ-counter, means ± SD, n=4-5 (68Ga: n=4)
# [6] = 6h p.i., i.v., means ± SD, n=4-5
# [7] = 48h p.i., i.v., means ± SD, n=4-5
smiles,measurement,setting,value
C[C@@H](NC(=O)[C@@H](CCCNC(=N)N)NC(=O)CN1CCN(CC(=O)O)CCN(CC(=O)O)CCN(CC(=O)O)CC1)C(=O)Nc1ccc(C(=O)NCCC[C@@H]2C(=O)N[C@@H](CCCNC(=N)N)C(=O)N[C@@H](Cc3ccc4ccccc4c3)C(=O)NCC(=O)N[C@H](Cc3ccc(O)cc3)C(=O)N2C)cc1 [[^177Lu]DOTA-r-a-ABA-CPCR4] [metal not drawn] (cyclo([2Nal]G[dY][dNMeOrn]([4Abz-dA-dR-DOTA])R)),"Stable (intact tracer) in blood, urine and liver homogenates",[1],> 99%
same,log PO/PBS,[2],-3.0 ± 0.13
same,Biodistribution adrenals,[3]; [5],1.16 ± 0.18 %iD/g
same,Biodistribution blood,[3]; [5],1.50 ± 0.10 %iD/g
same,Biodistribution colon,[3]; [5],0.78 ± 0.28 %iD/g
same,Biodistribution femur,[3]; [5],0.86 ± 0.04 %iD/g
same,Biodistribution heart,[3]; [5],0.90 ± 0.07 %iD/g
same,Biodistribution kidney,[3]; [5],9.74 ± 0.91 %iD/g
same,Biodistribution liver,[3]; [5],11.9 ± 1.57 %iD/g
same,Biodistribution lung,[3]; [5],3.53 ± 1.20 %iD/g
same,Biodistribution muscle,[3]; [5],0.28 ± 0.02 %iD/g
same,Biodistribution small intestine,[3]; [5],1.23 ± 0.18 %iD/g
same,Biodistribution spleen,[3]; [5],2.41 ± 0.34 %iD/g
same,Biodistribution stomach,[3]; [5],1.72 ± 0.16 %iD/g
same,Biodistribution tumor (Daudi xenograft),[3]; [5],18.3±3.7 %iD/g
same,Initial activity retained in the Daudi xenografts after 48h,[3],~50%
"CN1C(=O)[C@@H](Cc2ccc(O)c(I)c2)NC(=O)CNC(=O)[C@H](Cc2ccc3ccccc3c2)NC(=O)[C@H](CCCNC(=N)N)NC(=O)[C@H]1CCCNC(=O)c1ccc(CNC(=O)CN2CCN(CC(=O)O)CCN(CC(=O)O)CCN(CC(=O)O)CC2)cc1 [[^177Lu]PentixaTher, cyclo(D-3-iodo-Tyr^1-D-[NMe]Orn^2(AMBS-([^177Lu]DOTA)-Arg^3-Nal^4-Gly^5), metal not drawn, reference compound] (cyclo([dTyr(3-I)][dNMeOrn]([4Amb-DOTA])R[2Nal]G))",logD,[2]; octanol/PBS,-1.8 ± 0.2
same,Biodistribution brain,"[3]; 1h p.i., tracer only, i.v., γ-counter, means ± SD, n=4-5",0.05 ± 0.01 %iD/g
same,Biodistribution adrenals,[3]; [5],1.5 ± 0.6 %iD/g
same,Biodistribution femur,[3]; [5],0.6 ± 0.2 %iD/g
same,Biodistribution heart,[3]; [5],0.9 ± 0.3 %iD/g
same,Biodistribution kidney,[3]; [5],3.4 ± 0.6 %iD/g
same,Biodistribution liver,[3]; [5],10.3 ± 0.8 %iD/g
same,Biodistribution lung,[3]; [5],2.5 ± 0.7 %iD/g
same,Biodistribution muscle,[3]; [5],0.3 ± 0.1 %iD/g
same,Biodistribution pancreas,[3]; [5],0.4 ± 0.1 %iD/g
same,Biodistribution small intestine,[3]; [5],0.9 ± 0.2 %iD/g
same,Biodistribution spleen,[3]; [5],1.8 ± 0.3 %iD/g
same,Biodistribution stomach,[3]; [5],1.2 ± 0.3 %iD/g
same,Biodistribution tumor (Daudi xenograft),[3]; [5],12.4±3.7 %iD/g
same,Biodistribution adrenals,[3]; [6],0.64 ± 0.13 %iD/g
same,Biodistribution blood,[3]; [6],0.09 ± 0.01 %iD/g
same,Biodistribution brain,[3]; [6],0.02 ± 0.005 %iD/g
same,Biodistribution femur,[3]; [6],0.23 ± 0.02 %iD/g
same,Biodistribution heart,[3]; [6],0.18 ± 0.02 %iD/g
same,Biodistribution kidney,[3]; [6],2.52 ± 0.33 %iD/g
same,Biodistribution liver,[3]; [6],9.59 ± 0.69 %iD/g
same,Biodistribution lung,[3]; [6],0.42 ± 0.06 %iD/g
same,Biodistribution muscle,[3]; [6],0.06 ± 0.01 %iD/g
same,Biodistribution pancreas,[3]; [6],0.09 ± 0.01 %iD/g
same,Biodistribution small intestine,[3]; [6],0.22 ± 0.04 %iD/g
same,Biodistribution spleen,[3]; [6],1.35 ± 0.41 %iD/g
same,Biodistribution stomach,[3]; [6],0.21 ± 0.01 %iD/g
same,Biodistribution tumor (Daudi xenograft),[3]; [6],6.79 ± 0.68 %iD/g
same,Initial activity retained in the Daudi xenografts after 48h,[3],25%
same,Biodistribution adrenals,[3]; [7],0.56 ± 0.08 %iD/g
same,Biodistribution blood,[3]; [7],0.02 ± 0.001 %iD/g
same,Biodistribution brain,[3]; [7],0.007 ± 0.002 %iD/g
same,Biodistribution femur,[3]; [7],0.22 ± 0.05 %iD/g
same,Biodistribution heart,[3]; [7],0.11 ± 0.01 %iD/g
same,Biodistribution kidney,[3]; [7],1.20 ± 0.13 %iD/g
same,Biodistribution liver,[3]; [7],8.25 ± 2.23 %iD/g
same,Biodistribution lung,[3]; [7],0.21 ± 0.06 %iD/g
same,Biodistribution muscle,[3]; [7],0.04 ± 0.005 %iD/g
same,Biodistribution pancreas,[3]; [7],0.08 ± 0.01 %iD/g
same,Biodistribution small intestine,[3]; [7],0.11 ± 0.02 %iD/g
same,Biodistribution spleen,[3]; [7],1.58 ± 0.33 %iD/g
same,Biodistribution stomach,[3]; [7],0.12 ± 0.02 %iD/g
same,Biodistribution tumor (Daudi xenograft),[3]; [7],3.27 ± 0.41 %iD/g
same,tissue to tissue ratio at 48 h,"[4]; tumor / blood, read-out: Tumor/organ ratio t/blood",201 ± 27
same,tissue to tissue ratio at 48 h,"[4]; tumor / colon, read-out: Tumor/organ ratio t/colon",13 ± 5
same,tissue to tissue ratio at 48 h,"[4]; tumor / heart, read-out: Tumor/organ ratio t/heart",31 ± 4
same,tissue to tissue ratio at 48 h,"[4]; tumor / kidney, read-out: Tumor/organ ratio t/kidney",2.7 ± 0.4
same,tissue to tissue ratio at 48 h,"[4]; tumor / lung, read-out: Tumor/organ ratio t/lung",16 ± 5
same,tissue to tissue ratio at 48 h,"[4]; tumor / muscle, read-out: Tumor/organ ratio t/muscle",85 ± 15
same,tissue to tissue ratio at 48 h,"[4]; tumor / small intestine, read-out: Tumor/organ ratio t/small intestine",29 ± 6
same,tissue to tissue ratio at 48 h,"[4]; tumor / spleen, read-out: Tumor/organ ratio t/spleen",2.1 ± 0.5
same,tissue to tissue ratio at 48 h,"[4]; tumor / stomach, read-out: Tumor/organ ratio t/stomach",27 ± 6
C[C@@H](NC(=O)[C@@H](CCCNC(=N)N)NC(=O)CN1CCN(CC(=O)O)CCN(CC(=O)O)CCN(CC(=O)O)CC1)C(=O)Nc1ccc(C(=O)NCCC[C@@H]2C(=O)N[C@@H](CCCNC(=N)N)C(=O)N[C@@H](Cc3ccc4ccccc4c3)C(=O)NCC(=O)N[C@H](Cc3ccc(O)c(I)c3)C(=O)N2C)cc1 [[^68Ga]DOTA-r-a-ABA-iodoCPCR4] [metal not drawn] (cyclo([2Nal]G[dTyr(3-I)][dNMeOrn]([4Abz-dA-dR-DOTA])R)),log PO/PBS,[2],-3.3 ± 0.02
same,Biodistribution adrenals,[3]; [5],1.51 ± 0.18 %iD/g
same,Biodistribution liver,[3]; [5],5.66 ± 0.40 %iD/g
same,Biodistribution lung,[3]; [5],2.91 ± 0.28 %iD/g
same,Biodistribution spleen,[3]; [5],3.02 ± 0.46 %iD/g
same,Biodistribution stomach,[3]; [5],0.93 ± 0.15 %iD/g
same,Biodistribution tumor (Daudi xenograft),[3]; [5],8.32 ± 1.30 %iD/g
